{"source": "ChEMBL document CHEMBL5357036", "about": "“Latest developments in coumarin-based anticancer agents: mechanism of action and structure-activity relationship studies” (RSC Med Chem, 2024)", "key": {"[1]": {"test_system": "MCF7", "assay": "Anticancer activity against human MCF7 cells after 48 hrs by SRB assay", "format": "functional, cell-based", "details": "MCF7, 48 h"}, "[2]": {"test_system": "MCF7", "assay": "Antiproliferative activity against human MCF7 cells assessed as reduction in cell viability incubated for 48 hrs by cell titer-glo assay", "format": "functional, cell-based", "details": "MCF7, 48 h"}}}
{"smiles": "COc1ccc2nc(SCc3cc(=O)oc4ccc(C(C)(C)C)cc34)[nH]c2c1", "values": [{"measurement": "IC50", "setting": "[1]", "value": 180, "unit": "nM"}]}
{"smiles": "CCN(C)S(=O)(=O)c1ccc(/C(C)=N/NC(=O)c2cc3ccccc3oc2=O)cc1", "values": [{"measurement": "IC50", "setting": "[2]", "value": 2560, "unit": "nM"}]}
